According to patent US20040197321A1, “Composition and method to prevent or reduce diarrhea and steatorrhea in HIV patients” (priority 2002, published 2004):
Entries after “also recorded” stand apart in the source; their conditions may differ. Counter-ions that a name gives are not always drawn. Like-named read-outs stand apart in the source and are kept apart here.

Tests used:
HIV patients = conditions: Kakuda et al. 1998; cited from earlier work
[1] = target: T1, USP Reference Standard Pancrelipase (Sus scrofa, UniProt P00591); test: Lipase assay (USP titrimetric): inhibition of pancrelipase at pH 9.0; assay type: biochemical
T1 sequence (P00591 1-450): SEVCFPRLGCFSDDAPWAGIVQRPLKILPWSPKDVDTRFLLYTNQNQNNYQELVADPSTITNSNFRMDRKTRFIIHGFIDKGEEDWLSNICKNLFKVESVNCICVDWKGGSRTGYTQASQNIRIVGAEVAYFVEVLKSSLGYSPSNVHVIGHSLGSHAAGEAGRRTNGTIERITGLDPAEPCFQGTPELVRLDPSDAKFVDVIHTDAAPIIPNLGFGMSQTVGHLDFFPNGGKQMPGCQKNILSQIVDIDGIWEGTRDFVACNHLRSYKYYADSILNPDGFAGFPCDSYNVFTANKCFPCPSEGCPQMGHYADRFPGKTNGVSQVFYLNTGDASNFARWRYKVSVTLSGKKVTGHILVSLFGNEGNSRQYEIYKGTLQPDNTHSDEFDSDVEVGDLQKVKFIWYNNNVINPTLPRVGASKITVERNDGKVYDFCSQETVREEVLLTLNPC
Procedure: The enzyme sources consisted of USP Reference Standard Pancrelipase, USP Reference Standard Trypsin, colipase (Sigma Chemical Co.), and enterokinase (ICN Biochemicals). Appropriate concentrations of enzyme reference standard were prepared in cold distilled water, as described in USP reference assay procedures. The Infectious Disease Clinic in Somerville, N.J. provided the HAART medications. Pure drugs could not be obtained so commercial drug preparations were used in the assays. […] Appropriate concentrations of HAART drug, drug cocktails, and excipients were prepared in distilled water and reagent-grade methanol (Aldrich, Milwaukee, Wis.) or DMSO (Aldrich, Milwaukee, Wis.).
One unit (U) of lipase activity is defined as the amount of enzyme that liberates one μequivalent of free fatty acid from triglycerides per minute at pH 9.0 and 37° C. Lipase activity (U/mg) was determined by a lipase specific titrimetric assay described in the United States Pharmacopeia (USP), Volume XXII. In brief, the substrate consists of 10% olive oil in acacia solution, 40-mg/mL sodium taurocholate, 0.075M calcium chloride, 0.05M Tris in 3.0M NaCl buffer solution (pH 7.5) and distilled water. The emulsified substrate is incubated at 37° C. and brought to pH 9.0 with 0.02N NaOH. At time zero, 1.0 mL of enzyme solution was added. A pH stat autotitrator was used to maintain pH 9.0 and the volume of 0.02 N NaOH dispensed per unit time was recorded for five (5) minutes. From the initial slope of this plot, lipase activity was calculated using the following equation:
U/mg=slope (mL of NaOH dispensed/min)×N of NaOH×1000 /mg of enzyme assayed
HAART drug solutions were mixed with the substrate prior to incubation and addition of enzyme.

pancrelipase [2] = test: Recovery of pancrelipase activity after inhibition, by addition of excess lipase; assay type: biochemical
Procedure: The above procedure was used to monitor pancrelipase activity with the exception that drug was not preincubated with the substrate. At time zero 1.0 mL of pancrelipase was added to initiate the reaction. At five (5) minutes, 1.0 mL of HAART drug solution was added to the reaction mixture to cause inhibition of lipase activity. At twelve (12) minutes an additional 1.0 mL of pancrelipase was added to the reaction mixture to overcome HAART inhibition. The reaction was monitored for twenty (20) minutes.

pancrelipase [3] = target: T2, pancrelipase (Sus scrofa, UniProt P00591); test: Pancrelipase reactivation by colipase; assay type: biochemical; conditions: for % Lipase Activity with Colipase: colipase 5 μg/mL
T2 construct: Sigma Chemical Co. (colipase)
T2 sequence (P00591 1-450): T1 sequence (P00591 1-450)
Procedure: Junge et al., described the procedure for the reactivation of lipase by colipase. In brief, the above lipase assay procedure was used with the following variation: colipase solution replaced the distilled water so the concentration of colipase in the final reaction mixture was 5 μg/mL.

[4] = target: T3, USP Reference Standard Trypsin (Bos taurus, UniProt P00760); test: Trypsin assay (spectrophotometric); assay type: biochemical; conditions: NRTI; drug 2.1*10^-4M (Drug Tested 44-141 μg/mL); trypsin 7.6 μg/mL; 25° C.
T3 sequence (P00760 24-246): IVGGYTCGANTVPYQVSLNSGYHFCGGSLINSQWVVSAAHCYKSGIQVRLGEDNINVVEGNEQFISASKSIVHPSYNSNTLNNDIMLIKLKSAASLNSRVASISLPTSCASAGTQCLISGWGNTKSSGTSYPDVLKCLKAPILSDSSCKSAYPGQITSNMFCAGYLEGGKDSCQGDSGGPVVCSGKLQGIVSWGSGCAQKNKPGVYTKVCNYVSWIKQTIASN
Procedure: Appropriate concentrations of enzyme reference standard were prepared in cold distilled water, as described in USP reference assay procedures. The Infectious Disease Clinic in Somerville, N.J. provided the HAART medications. Pure drugs could not be obtained so commercial drug preparations were used in the assays. […] Appropriate concentrations of HAART drug, drug cocktails, and excipients were prepared in distilled water and reagent-grade methanol (Aldrich, Milwaukee, Wis.) or DMSO (Aldrich, Milwaukee, Wis.).

[5] = pH 9.0, read-out: IC50 for inhibitors of pancrelipase (converted)

Cc1c(O)cccc1C(=O)N[C@@H](CSc1ccccc1)[C@H](O)CN1C[C@H]2CCCC[C@H]2C[C@H]1C(=O)NC(C)(C)C [nelfinavir, 2-[2′-hydroxy-3′-phenylthiomethyl-4′-aza-5′-oxo-5′-(2″-methyl-3″-hydroxyphenyl)pentyl]decahydroisoquinoline-3-N-t-butyl-carboxamide]
HIV patients who experience diarrhea (HIV patients): 12-20%

Vitamin E
% Inhibition of Pancrelipase ([1]; pH 9.0, Wt % Excipient in Source Used 50): 20%

Cc1c(O)cccc1C(=O)N[C@@H](CSc1ccccc1)[C@H](O)CN1C[C@H]2CCCC[C@H]2C[C@H]1C(=O)NC(C)(C)C [VIRACEPT ®, Nelfinavir mesylate]
IC50 [1, 5]: 780 µM

D-α-tocopheryl polyethylene glycol 1000 succinate [TPGS]
inhibition of pancrelipase (in words) [1]: significantly inhibited; also recorded: significant inhibition
IC50 for inhibitors of pancrelipase ([1]; pH 9.0): 275 µg/mL
% Inhibition of Pancrelipase ([1]; pH 9.0, Wt % Excipient in Source Used 0.2): 6%
% Inhibition of Pancrelipase ([1]; pH 9.0, Wt % Excipient in Source Used 0.5): 43%
% Inhibition of Pancrelipase ([1]; pH 9.0, Wt % Excipient in Source Used 1): 79%
% Inhibition of Pancrelipase ([1]; pH 9.0, Wt % Excipient in Source Used 2): 93%
% Inhibition of Pancrelipase ([1]; pH 9.0, Wt % Excipient in Source Used 4): 95%
% Inhibition of Pancrelipase ([1]; pH 9.0, Wt % Excipient in Source Used 20): 96%
IC50 [1, 5]: 182 µM
effect of addition of excess lipase on the inhibition of pancrelipase (in words) (pancrelipase [2]): can be overcome
% Reactivation of Pancrelipase (pancrelipase [2]; after addition of excess lipase (additional 1.0 mL pancrelipase at 12 minutes)): 98%
% Pancrelipase Activity (pancrelipase [2]; drug inhibited, before addition of excess lipase): 55%
effect of added colipase on the inhibition of pancrelipase (in words) (pancrelipase [3]): reversed; also recorded: restored pancrelipase activity
% Lipase Activity No Colipase (pancrelipase [3]; Drug Conc. 10.0 mg/mL): 21%
% Lipase Activity with Colipase (pancrelipase [3]; Drug Conc. 10.0 mg/mL): 79%

Nc1ccn([C@H]2CC[C@@H](CO)O2)c(=O)n1 [Zalcitabine USP Ref. STND, 2′,3′-Dideoxycytidine]
Inhibition of Tryspin [4]: 0%

CC(C)(C)NC(=O)[C@@H]1C[C@@H]2CCCC[C@@H]2CN1C[C@@H](O)[C@H](Cc1ccccc1)NC(=O)[C@H](CC(N)=O)NC(=O)c1ccc2ccccc2n1 [FORTOVASE ®, Saquinavir]
IC50 ([1]; IC50 for inhibitors of pancrelipase, pH 9.0): 3230 µM

CCCCCCCCCCC[C@@H](C[C@@H]1OC(=O)[C@H]1CCCCCC)OC(=O)[C@H](CC(C)C)NC=O [ORLISTAT, Orlistat, reference compound]
effect of added colipase on the inhibition of pancrelipase (in words) (pancrelipase [3]): no effect
% Lipase Activity No Colipase (pancrelipase [3]; Drug Conc. 0.002 mg/mL): 37%
% Lipase Activity with Colipase (pancrelipase [3]; Drug Conc. 0.002 mg/mL): 29%
